Results on one compound are retold here after patent US20260325508A1, “COMBINATION OF PAC-1 AND CAR T-CELL TREATMENTS” (THE BOARD OF TRUSTEES OF THE UNIVERSITY OF ILLINOIS, priority 2023, published 2026).

This experiment has as its system ID8Cosmc-KO. Briefly: Survival of ID8Cosmc-KO-bearing mice, PAC-1 and 237 CAR-T combinations. Particulars: single agent, PAC-1 100 mg/kg i.p. from day 40, three weeks 5 days ON, 2 days OFF; untreated 71 days; p<0.0001. Type of experiment: in vivo, mouse. The procedure:
FIG. 14A-B. PAC-1 enhanced efficacy of 237 CAR-T in late-stage ovarian cancer model. Survival curves of mice with established ID8Cosmc-KO tumors treated with a combination of PAC-1 and 237 CAR-T in comparison with their single-agent controls. (A) Mice with detectable tumors at day 40 post-tumor inoculation were administered with either PAC-1 (100 mg/kg) or vehicle intraperitoneally for three weeks at a “five days ON, 2 days OFF” treatment schedule. At day 60 post-tumor inoculation, mice were given either 237 CAR-T or mock T cells (5 million cells, >40% transduction efficiency) via i.p. injection. Cyclophosphamide (100 mg/kg, i.p.) were administered 24 hours prior to adoptive T cell transfer to deplete pre-existing lymphocytes. (B) Data were plotted with GraphPad Prism v10 using cumulative data across five independent experiments, with the indicated total n for each treatment arm. Median survival times are indicated; P-values were calculated using the Log-rank (Mantel-Cox) test.
FIG. 15A-B. PAC-1 at day 50 (or day 60) and 237 CAR-T at day 60 combination treatment. […] Median survival times are indicated; P-values were calculated using the Log-rank (Mantel-Cox) test. […]
FIG. 16A-B. 237 CAR-T at day 60 and PAC-1 at day 77 combination treatment. […] Median survival times are indicated; P-values were calculated using the Log-rank (Mantel-Cox) test. […]

Turning to `C=CCc1cccc(/C=N/NC(=O)CN2CCN(Cc3ccccc3)CC2)c1O` [PAC-1], the median survival is 90 days.
